# Laboratory results reported in the supplement of paper PMC11208160.
# Assay: recombinant barcode read abundance after kanamycin selection (control-corrected) (log10(CPM+1)); higher = more efficient recombination; sequences stand for … in AGTGCAGAGAAAATCGGCCAGTTTTCTCTGCCTGCAGTCCGCATGCCGT…AGATTTATGCAGCGGACTGCCTTTCTCCCAAAGTGATAAACCGGACAGTATCATGGACCGGTTTTCCCGGTAATCCGTATTTGCAAGGTTGGTTTCACT; site = the 11-nt target
# Outline: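 Recombination efficiency comes from barcode counts at recombinant junctions, converted to counts per million, averaged and corrected against the control. Values appear as log10(CPM+1). They were obtained from a pooled E. coli screen in which each oligo paired a target with an IS621 bridge RNA target-binding loop, and cells were plated in duplicate on chloramphenicol/ampicillin LB agar or on chloramphenicol/ampicillin/kanamycin with 0.1 mM IPTG.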
# 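Note: IS621 recombinase and bridge RNA in Escherichia coli cells.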
row,Sequence,recombinant barcode read abundance (log10)
1,TTAAGCTCTTGGGTTCTAACCTGTTGCCT (site CTAAGCTCTAG),0.197
2,TTAAGCTCTTGGGTTCTAACCTGTTGCCT (site GTAAGCTCTAG),0
3,TTAAGCTCTTGGGTTCTAACCTGTTGCCT (site TTAAGCTCTAG),1.43
4,TTAAGTCCTTGGGTTCTAACCTGTTGCAT (site TTAAGTCCTAT),0.498
5,TTAAGTCCTTGGGTTCTAACCTGTTGCAT (site TTAGGTCCTAA),0.0454
6,TTACCCACTTGGGTTCTAACCTGTTGCCT (site TTACCAACTAG),0.0275
7,TTACCCACTTGGGTTCTAACCTGTTGCCT (site TTACCCACTAG),3.27
8,TTACCCACTTGGGTTCTAACCTGTTGCCT (site TTACCGACTAG),0.0929
9,TTACCCACTTGGGTTCTAACCTGTTGCCT (site TTACCTACTAG),0.151
10,TTACGAGCTTGGGTTCTAACCTGTTGCGG (site TTACGAGCTCC),1.81
11,TTACGAGCTTGGGTTCTAACCTGTTGCGG (site TTACGCGCTCC),0.176
12,TTACGAGCTTGGGTTCTAACCTGTTGCGG (site TTACGGGCTCC),0.608
13,TTACGAGCTTGGGTTCTAACCTGTTGCGG (site TTACGTGCTCC),0.14
14,TTACGTACTTGGGTTCTAACCTGTTGCCT (site ATACGTACTAG),0.131
15,TTACGTACTTGGGTTCTAACCTGTTGCCT (site CTACGTACTAG),0.193
16,TTACGTACTTGGGTTCTAACCTGTTGCCT (site GTACGTACTAG),0.19
17,TTACGTACTTGGGTTCTAACCTGTTGCCT (site TTACGTACTAG),1.45
18,TTACGTGCTTGGGTTCTAACCTGTTGCGG (site TTACGAGCTCC),0.271
19,TTACGTGCTTGGGTTCTAACCTGTTGCGG (site TTACGCGCTCC),0.141
20,TTACGTGCTTGGGTTCTAACCTGTTGCGG (site TTACGGGCTCC),0.67
21,TTACGTGCTTGGGTTCTAACCTGTTGCGG (site TTACGTGCTCC),2.4
22,TTAGAGCCTTGGGTTCTAACCTGTTGCCT (site TTAGAGACTAG),0.0939

row,Sequence,recombinant barcode read abundance (log10)
1,TTAGAGCCTTGGGTTCTAACCTGTTGCCT (site TTAGAGCCTAG),2
2,TTAGAGCCTTGGGTTCTAACCTGTTGCCT (site TTAGAGGCTAG),0.173
3,TTAGAGCCTTGGGTTCTAACCTGTTGCCT (site TTAGAGTCTAG),0.644
4,TTAGAGTCTTGGGTTCTAACCTGTTGCCT (site TTAGAGACTAG),0.103
5,TTAGAGTCTTGGGTTCTAACCTGTTGCCT (site TTAGAGCCTAG),0.925
6,TTAGAGTCTTGGGTTCTAACCTGTTGCCT (site TTAGAGGCTAG),0.126
7,TTAGAGTCTTGGGTTCTAACCTGTTGCCT (site TTAGAGTCTAG),2.08
8,TTAGCCTCTTGGGTTCTAACCTGTTGCCT (site TTAGCATCTAG),0.168
9,TTAGCCTCTTGGGTTCTAACCTGTTGCCT (site TTAGCCTCTAG),2.66
10,TTAGCCTCTTGGGTTCTAACCTGTTGCCT (site TTAGCGTCTAG),0.137
11,TTAGCCTCTTGGGTTCTAACCTGTTGCCT (site TTAGCTTCTAG),0.00901
12,TTAGCGTCTTGGGTTCTAACCTGTTGCCT (site TTAGCATCTAG),1.47
13,TTAGCGTCTTGGGTTCTAACCTGTTGCCT (site TTAGCCTCTAG),0.0674
14,TTAGCGTCTTGGGTTCTAACCTGTTGCCT (site TTAGCGTCTAG),1.73
15,TTAGCGTCTTGGGTTCTAACCTGTTGCCT (site TTAGCTTCTAG),0.129
16,TTATACACTTGGGTTCTAACCTGTTGCTC (site GATAGGGCTAG),0.0179
17,TTATACACTTGGGTTCTAACCTGTTGCTC (site TTATACACTGA),0.919
18,TTATGATCTTGGGTTCTAACCTGTTGCCT (site TCATGAACTAG),0.0371
19,TTATGATCTTGGGTTCTAACCTGTTGCCT (site TTATGATCTAG),0.193
20,TTATGGGCTTGGGTTCTAACCTGTTGCCG (site TCCTGGGCTCG),0.114
21,TTATGGGCTTGGGTTCTAACCTGTTGCCG (site TTATGGGCTCG),0.88
22,TTCAAGACTTGGGTTCTAACCTGTTGCCT (site TTCAAGACTAG),0.681

row,Sequence,recombinant barcode read abundance (log10)
1,TTCAAGACTTGGGTTCTAACCTGTTGCCT (site TTCAAGCCTAG),0.0955
2,TTCAAGACTTGGGTTCTAACCTGTTGCCT (site TTCAAGGCTAG),0
3,TTCAAGACTTGGGTTCTAACCTGTTGCCT (site TTCAAGTCTAG),0.241
4,TTCAAGCCTTGGGTTCTAACCTGTTGCGG (site TTCAAGCCTAC),0.222
5,TTCAAGCCTTGGGTTCTAACCTGTTGCGG (site TTCAAGCCTCC),1.15
6,TTCAAGGCTTGGGTTCTAACCTGTTGCCT (site TTCAAGACTAG),0.0627
7,TTCAAGGCTTGGGTTCTAACCTGTTGCCT (site TTCAAGCCTAG),0.118
8,TTCAAGGCTTGGGTTCTAACCTGTTGCCT (site TTCAAGGCTAG),0.17
9,TTCAAGGCTTGGGTTCTAACCTGTTGCCT (site TTCAAGTCTAG),0.461
10,TTCAAGTCTTGGGTTCTAACCTGTTGCGT (site TTCAACTCTAC),0.0281
11,TTCAAGTCTTGGGTTCTAACCTGTTGCGT (site TTCAAGTCTAC),1.33
12,TTCAATTCTTGGGTTCTAACCTGTTGCTT (site TATAATTCTAA),0.00963
13,TTCAATTCTTGGGTTCTAACCTGTTGCTT (site TTCAATTCTAA),0.0521
14,TTCCCTACTTGGGTTCTAACCTGTTGCCT (site CTCCCAACTAG),0.102
15,TTCCCTACTTGGGTTCTAACCTGTTGCCT (site TTCCCTACTAG),0.452
16,TTCCGAGCTTGGGTTCTAACCTGTTGCAG (site CCTACGCCTTG),0.216
17,TTCCGAGCTTGGGTTCTAACCTGTTGCAG (site TTCCGAGCTCT),0.873
18,TTCGGAGCTTGGGTTCTAACCTGTTGCTG (site TTCGGAGCTCA),1.56
19,TTCGGAGCTTGGGTTCTAACCTGTTGCTG (site TTGGGAGCTCA),0.0871
20,TTCGGCTCTTGGGTTCTAACCTGTTGCTA (site CGATCACCTAG),0.0491
21,TTCGGCTCTTGGGTTCTAACCTGTTGCTA (site TTCGGCTCTTA),0.605
22,TTCGTAGCTTGGGTTCTAACCTGTTGCGT (site TTCGTAGCTAC),1.29

row,Sequence,recombinant barcode read abundance (log10)
1,TTCGTAGCTTGGGTTCTAACCTGTTGCGT (site TTCGTAGCTAG),0.285
2,TTCTACACTTGGGTTCTAACCTGTTGCAT (site GAACCTTCTCC),0.107
3,TTCTACACTTGGGTTCTAACCTGTTGCAT (site TTCTACACTAT),0.298
4,TTCTACTCTTGGGTTCTAACCTGTTGCCT (site CTCTACTCTAG),0.75
5,TTCTACTCTTGGGTTCTAACCTGTTGCCT (site TTCTACTCTAG),0.405
6,TTCTCTCCTTGGGTTCTAACCTGTTGCCT (site TTCTATCCTAG),0.0831
7,TTCTCTCCTTGGGTTCTAACCTGTTGCCT (site TTCTCTCCTAG),0.206
8,TTCTCTCCTTGGGTTCTAACCTGTTGCCT (site TTCTGTCCTAG),0.00855
9,TTCTCTCCTTGGGTTCTAACCTGTTGCCT (site TTCTTTCCTAG),0.169
10,TTCTCTTCTTGGGTTCTAACCTGTTGCCT (site TTCTCTTCTAG),0.0495
11,TTCTCTTCTTGGGTTCTAACCTGTTGCCT (site TTCTGTTCTAG),0.103
12,TTCTGAACTTGGGTTCTAACCTGTTGCCT (site GTCTCAACTAG),0.109
13,TTCTGAACTTGGGTTCTAACCTGTTGCCT (site TTCTGAACTAG),0.126
14,TTCTTACCTTGGGTTCTAACCTGTTGCCT (site TACTTACCTAG),0.0709
15,TTCTTACCTTGGGTTCTAACCTGTTGCCT (site TTCTTACCTAG),0.654
16,TTCTTGCCTTGGGTTCTAACCTGTTGCCT (site TTATTGTCTAG),0.111
17,TTCTTGCCTTGGGTTCTAACCTGTTGCCT (site TTCTTGCCTAG),0.665
18,TTCTTTCCTTGGGTTCTAACCTGTTGCCT (site TTCTATCCTAG),0.0663
19,TTCTTTCCTTGGGTTCTAACCTGTTGCCT (site TTCTCTCCTAG),0.0684
20,TTCTTTCCTTGGGTTCTAACCTGTTGCCT (site TTCTGTCCTAG),0.0839
